Measurements as given in publication PMC6736837, “^18F-labelled triazolyl-linked argininamides targeting the neuropeptide Y Y1R for PET imaging of mammary carcinoma” (Scientific Reports, 2019).
Entries after “also recorded” stand apart in the source; their conditions may differ.

Key:
[1] = Octanol-water distribution coefficient logD7.4, shake flask method; assay type: physicochemical; details: 1-octanol/PBS, pH 7.4, PBS/1-octanol, read-out: logD7.4 experimental
Method: The lipophilicity of the radioligands was determined by the distribution coefficient logD7.4. The respective radioligand (10 µL, about 25 kBq) was added to a mixture of PBS (500 µL) and 1-octanol (500 µL) and the emulsion was vortexed for 1 min. After centrifugation 3 × 100 µL were taken of each layer and analysed by a γ-counter. The partition coefficient was calculated as logD7.4=log(cpmoctanol/cpmPBS) . Data were expressed as mean values ± SD from three experiments.

MCF-7-Y1 cells = experiment: Cellular accumulation assay in MCF-7-Y1 cells; assay type: cell-based, human; details: nonspecific binding with 10 µM BIBP3226; [^18F]12 at 30 and 60 min
Method: MCF-7-Y1 is a subclone that originated in Prof. […] MCF-7-Y1 cells were cultivated in MEM Earle´s liquid medium with 2.2 g/L NaHCO3 (Merck Biochrom, Darmstadt) containing 10% FBS and 1% L-glutamine. All cells were cultured under sterile conditions in a humidified atmosphere containing 5% CO2 at 37 °C. Cells were routinely passaged twice a week.
The cellular accumulation of Y1R radioligands by MCF-7-Y1 cells was measured: On the day prior to the experiment, 300,000 cells per well were seeded into 24-well plates (Greiner Bio-One). Attached cells were washed twice with cold PBS and 450 µL of assay medium (cell culture medium containing 0.1% BSA) were added to the cells for total binding. For non-specific binding, 400 µL of assay medium and 50 µL of medium containing 10 µM BIBP3226 were added. Finally, 50 µL of medium containing approx. 15 kBq of the respective radiotracer were added to each well, and cells were incubated at 37 °C for 10, 30, 60 or 90 min. After incubation, cells were washed with 500 µL of ice-cold PBS and lysed with 600 µL of warm 1 M NaOH. The lysed cells were transferred to counting tubes and analysed in the γ-counter (Wallac Wizard, Perkin Elmer, Waltham, MA, USA). Separate tubes containing 50 µL of medium with the radiotracer (approx. 15 kBq) were analysed as reference samples. Experiments were performed in sextuplicate (n = 6).

MCF-7-Y1 tumour slices = experiment: In-vitro autoradiography on MCF-7-Y1 tumour xenograft slices; assay type: binding, human; details: blocking with 1 µM and 10 µM BIBP3226
Method: MCF-7-Y1 tumour bearing mice were sacrificed by cervical dislocation under deep isoflurane anesthesia and tumours were excised and subsequently frozen in a hexane/dry ice bath (−70 °C). MCF-7-Y1 tumour slices (14 µm) were prepared on a cryostat microtome HM 500 O (Microm, Walldorf) and thaw-mounted on Histobond® adhesive glass slides (Marienfeld, Lauda-Königshofen).
For autoradiography studies slides were thawed and pre-incubated for 15 min in incubation buffer (50 mM TRIS HCl, pH 7.4, containing 120 mM NaCl, 5 mM MgCl2,) at room temperature. Thereafter, 800 µL of incubation buffer, containing 0.1 MBq of the respective radiotracer were pipetted on the slide and incubated at room temperature for 60 min. For displacement studies BIBP3226 (1 µM or 10 µM) was added to the incubation buffer before pipetting on the slides. Afterwards slides were washed by placing in ice cold incubation buffer (3 × 2 min) followed by short dipping in ice cold distilled water. Slides were carefully dried in a stream of warm air and finally placed on an autoradiography film (Fuji Imaging Plate BAS-IP SR 2025 E, Fujifilm, Düsseldorf) overnight prior to readout (25 µm resolution) on the autoradiograph (HD-CR-35 Bio, Raytest, Straubenhardt) and analysis with the software AIDA (Raytest). Additional sections were stained with hematoxylin and eosin (H&E) for comparison with the autoradiography images.

[2] = Radioactive metabolites of Y1R radioligands in mouse blood; assay type: in vivo; details: for stability in the blood in vivo (in words): mouse blood samples taken early after radiotracer injection; for intact radioligand in blood samples: 5 min p.i.
Method: Nude mice were anesthetised with isoflurane and injected with the respective radiotracer (3–25 MBq) into the tail vein. After 5 min, animals were sacrificed by cervical dislocation and approx. 100 µL blood were collected from the abdomen and transferred into Li-heparinised Microvettes® (100 LH, Sarstedt). The same volume of aqueous urea (0.8 g/mL) was added and the Microvette® was centrifuged (2000 × g, 5 min). The supernatant was transferred to a 1.5 mL reaction vial, mixed with the same volume of 10% aqueous TFA and centrifuged (20000 × g, 5 min). This step was repeated once. A sample of the resulting supernatant (100 µL) was analysed by radio-HPLC using two methods (Chromolith RP-18e, 100 × 4.6 mm, 4 mL/min, 0–1 min 25% CH3CN (0.1%TFA) in water (0.1%TFA), 1–6 min 25–60%, 6–7 min 60–100%, 7–8 min 100%; Kromasil 100 C8 5 µm, 250 × 4.6 mm, 1.5 mL/min, 1–25 min 20–53.3% CH3CN (0.1% TFA) in water (0.1% TFA), 25–27 min 53.3–80%, 27–28 min 80–100%, 28–32 min 100%).

MCF-7-Y1 tumours = experiment: Small animal PET in MCF-7-Y1 xenografted nude mice; assay type: in vivo, mouse; details: 45–60 min p.i., blocking by co-injection of BIBP3226 1 mg/kg
Method: For the NPY Y1R xenograft model, female NMRI nude mice (HsdCpb:NMRI-Foxn1^nu) were purchased from Envigo (Horst, The Netherlands) at the age of three weeks. Mice were kept in groups of four to five animals in individually ventilated cages in a twelve hours dark/light cycle with unlimited access to water and standard chow. At the age of nine to ten weeks one 17β-estradiol pellet per animal (0.72 mg per pellet, 3 mm diameter) with a 60-day release time (Innovative Research of America, Sarasota, FL, USA) was subcutaneously implanted on the back under isoflurane anesthesia. After three days, approximately 10^6 MCF-7-Y1 tumour cells (in 50 µL PBS) were mixed with Matrigel (50 µL, BD Biosciences, Heidelberg) and then injected subcutaneously at the back. Tumour diameters and weight of the animals were recorded five times a week. Imaging studies were performed four weeks after inoculation of the cells.
Small animal PET scans were performed on an Inveon™ microPET scanner (Siemens Healthcare, Erlangen) under isoflurane anesthesia (3%). Tumour bearing mice (26–35 g, n = 2–3 for each radioligand) were intravenously injected into the tail vein with the respective radiotracer (1.5–4.2 MBq in about 100 µL of saline) under isoflurane anesthesia (3–4%). Static images were acquired for 15 min starting 45 min p.i. of the radiotracer. For displacement studies, the same mice were co-injected with the radiotracer ([^18F]12 and [^18F]13 only) and BIBP3226 (1 mg/kg). Images were corrected for decay and attenuation and MAP (iterative maximum a posteriori) images were reconstructed using the built-in software of the PET scanner. Evaluation of the MAP images was conducted using the software PMOD (version 3.6, PMOD Technologies LLC, Zürich). Regions of interests (ROIs) were drawn and radioactivity concentration within these regions was obtained from the mean values and calculated as percentage of the total injected dose per gram tissue (% ID/g).

| SMILES | logD [1] | specific accumulation in MCF-7-Y1 cells (total radioactivity in each well = 100%) (MCF-7-Y1 cells) | specific binding to MCF-7-Y1 tumour slices (autoradiography) (MCF-7-Y1 tumour slices) | stability in the blood in vivo (in words) [2] | intact radioligand in blood samples ([2]; mouse) | tumour visualisation / specific tumour accumulation in PET (MCF-7-Y1 tumours) | radiometabolites in the blood ([2]; mouse) [%] |
| --- | --- | --- | --- | --- | --- | --- | --- |
| N/C(=N/C(=O)NCc1cn([C@@H]2OC(C[18F])[C@@H](O)C(O)C2O)nn1)NCCC[C@@H](NC(=O)C(c1ccccc1)c1ccccc1)C(=O)NCc1ccc(O)cc1 (stereo partly drawn) [[^18F]11, (2R)‐5‐{[(1Z)‐Amino({[({1‐[(2R,5S)‐6‐([^18F]fluoromethyl)‐3,4,5‐trihydroxyoxan‐2‐yl]‐1H‐1,2,3‐triazol‐4‐yl}methyl)carbamoyl]imino})methyl]amino}‐2‐(2,2‐diphenylacetamido)‐N‐[(4‐hydroxyphenyl)-methyl]pentanamide] | 0.78 ± 0.005 | almost no specific binding | very low specific binding | higher stability in the blood in vivo | about 50% | visualision of the tumour with the fluoroglycosylated radiotracer [^18F]11 failed |  |
| N/C(=N/C(=O)NCc1cn(CCOCCOCCOCC[18F])nn1)NCCC[C@@H](NC(=O)C(c1ccccc1)c1ccccc1)C(=O)NCc1ccc(O)cc1 [[^18F]13, (2R)‐5‐{[(1Z)‐Amino[({[1‐(2‐{2‐[2‐(2‐[^18F]fluoroethoxy)ethoxy]ethoxy}ethyl)‐1H‐1,2,3‐triazol‐4‐yl]methyl}carbamoyl)imino]methyl]amino}‐2‐(2,2‐diphenylacetamido)‐N‐[(4‐hydroxyphenyl)-methyl]pentanamide] | 1.49 ± 0.003 | 1% | marked specific binding | underwent rapid degradation in the blood | less than 5% | displaceable and thus specific Y1R-mediated tumour acculuation in vivo; also recorded: enhanced and specific tumour uptake | > 90 |
